Source: patent publication US20090018134A1, “Compounds - 945” (AstraZeneca AB, priority 2007, published 2009)

Target: T1, mTOR (Homo sapiens, UniProt P42345)
T1 construct: FLAG; made in house
Test: In Vitro mTOR Kinase Assay (Echo), Test (a)(ii)
Assay type: biochemical
Details: read-out: mTOR Kinase Assay (Echo)
Outline: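 FLAG-tagged human mTOR truncation (residues 1362-2549) expressed in HEK293 cells and FLAG-purified. Compounds dispensed acoustically, reaction 2 h at room temperature, stopped with EDTA. Phosphorylation of biotinylated peptide detected by AlphaScreen with anti-p70 S6K (T389) antibody overnight; IC50 reported.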

T1 sequence (P42345 1362-2549): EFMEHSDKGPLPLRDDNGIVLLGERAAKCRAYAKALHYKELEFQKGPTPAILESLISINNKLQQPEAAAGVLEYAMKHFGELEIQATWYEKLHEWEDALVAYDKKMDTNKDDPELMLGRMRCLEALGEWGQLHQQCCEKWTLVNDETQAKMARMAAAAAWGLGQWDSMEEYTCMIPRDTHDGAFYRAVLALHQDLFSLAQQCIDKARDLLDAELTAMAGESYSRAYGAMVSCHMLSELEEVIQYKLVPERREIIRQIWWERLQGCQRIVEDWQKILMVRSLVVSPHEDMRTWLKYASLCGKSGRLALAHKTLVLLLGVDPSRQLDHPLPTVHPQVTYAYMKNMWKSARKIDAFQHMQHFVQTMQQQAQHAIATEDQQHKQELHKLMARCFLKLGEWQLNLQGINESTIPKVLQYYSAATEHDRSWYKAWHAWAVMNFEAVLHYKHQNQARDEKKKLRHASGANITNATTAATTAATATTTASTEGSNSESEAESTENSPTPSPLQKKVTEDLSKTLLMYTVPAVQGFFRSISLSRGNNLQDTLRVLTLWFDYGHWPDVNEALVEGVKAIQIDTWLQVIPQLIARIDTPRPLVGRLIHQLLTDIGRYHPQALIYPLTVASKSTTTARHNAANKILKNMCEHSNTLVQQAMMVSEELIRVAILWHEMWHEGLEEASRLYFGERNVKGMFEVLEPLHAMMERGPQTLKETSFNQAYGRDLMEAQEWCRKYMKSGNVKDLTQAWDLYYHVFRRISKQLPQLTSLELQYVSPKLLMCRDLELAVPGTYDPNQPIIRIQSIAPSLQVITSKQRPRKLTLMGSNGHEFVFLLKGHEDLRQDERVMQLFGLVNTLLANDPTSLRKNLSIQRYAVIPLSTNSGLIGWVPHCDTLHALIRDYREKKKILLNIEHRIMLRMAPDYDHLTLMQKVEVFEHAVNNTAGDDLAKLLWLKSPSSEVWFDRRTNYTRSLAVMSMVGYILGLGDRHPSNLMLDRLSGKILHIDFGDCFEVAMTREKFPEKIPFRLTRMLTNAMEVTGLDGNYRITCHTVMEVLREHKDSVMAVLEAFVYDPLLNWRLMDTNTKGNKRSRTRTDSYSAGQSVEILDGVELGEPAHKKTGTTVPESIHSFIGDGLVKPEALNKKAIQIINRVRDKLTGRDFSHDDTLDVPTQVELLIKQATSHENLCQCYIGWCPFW

Row | SMILES | IC50
1 | CCS(=O)(=O)C1(c2cc(N3CCOC[C@@H]3C)nc(-c3ccc(NC(=O)NC(C)(C)CO)cc3)n2)CC1 [Example 11f, 1-[4-[4-(1-ethylsulfonylcyclopropyl)-6-[(3S)-3-methylmorpholin-4-yl]pyrimidin-2-yl]phenyl]-3-(1-hydroxy-2-methyl-propan-2-yl)urea] | 3.37 nM
2 | CCS(=O)(=O)C1(c2cc(N3CCOC[C@@H]3C)nc(-c3ccc(NC(=O)NCCN(C)C)cc3)n2)CC1 [Example 11g, 3-(2-dimethylaminomethyl)-1-[4-[4-(1-ethylsulfonylcyclopropyl)-6-[(3S)-3-methylmorpholin-4-yl]pyrimidin-2-yl]phenyl]urea] | 313 nM
3 | CCCNC(=O)Nc1ccc(-c2nc(N3CCOC[C@@H]3C)cc(C3(S(=O)(=O)CC)CC3)n2)cc1 [Example 11h, 3-[4-[4-(1-ethylsulfonylcyclopropyl)-6-[(3S)-3-methylmorpholin-4-yl]pyrimidin-2-yl]phenyl]-1-propyl-urea] | 9.13 nM
4 | CCS(=O)(=O)C1(c2cc(N3CCOC[C@@H]3C)nc(-c3ccc(NC(=O)NCC(C)C)cc3)n2)CC1 [Example 11i, 1-[4-[4-(1-ethylsulfonylcyclopropyl)-6-[(3S)-3-methylmorpholin-4-yl]pyrimidin-2-yl]phenyl]-3-(2-methylpropyl)urea] | 29.4 nM
5 | CCS(=O)(=O)C1(c2cc(N3CCOC[C@@H]3C)nc(-c3ccc(NC(=O)NCCCO)cc3)n2)CC1 [Example 11j, 1-[4-[4-(1-ethylsulfonylcyclopropyl)-6-[(3S)-3-methylmorpholin-4-yl]pyrimidin-2-yl]phenyl]-3-(3-hydroxypropyl)urea] | 12.2 nM
6 | CCS(=O)(=O)C1(c2cc(N3CCOC[C@@H]3C)nc(-c3ccc(NC(=O)Nc4ccc(C(F)(F)F)cc4)cc3)n2)CC1 [Example 11k, 1-[4-[4-(1-ethylsulfonylcyclopropyl)-6-[(3S)-3-methylmorpholin-4-yl]pyrimidin-2-yl]phenyl]-3-[4-(trifluoromethyl)phenyl]urea] | 3.32 nM
7 | CCS(=O)(=O)C1(c2cc(N3CCOC[C@@H]3C)nc(-c3ccc(NC(=O)Nc4ccccn4)cc3)n2)CC1 [Example 11l, 1-[4-[4-(1-ethylsulfonylcyclopropyl)-6-[(3S)-3-methylmorpholin-4-yl]pyrimidin-2-yl]phenyl]-3-pyridin-2-yl-urea] | 3.56 nM
8 | CCS(=O)(=O)C1(c2cc(N3CCOC[C@@H]3C)nc(-c3ccc(NC(=O)Nc4cnn(C)c4)cc3)n2)CC1 [Example 11m, 1-[4-[4-(1-ethylsulfonylcyclopropyl)-6-[(3S)-3-methylmorpholin-4-yl]pyrimidin-2-yl]phenyl]-3-(1-methylpyrazol-4-yl)urea] | 4.37 nM
9 | CS(=O)(=O)C1(c2cc(N3CCOCC3)nc(-c3ccc(NC(=O)NC4CC4)cc3)n2)CC1 [Example 12, 3-Cyclopropyl-1-[4-[4-(1-methylsulfonylcyclopropyl)-6-morpholin-4-ylpyrimidin-2-yl]phenyl]urea] | 4.21 nM

The next lines start with the values.

Row | IC50 | SMILES
10 | 1.67 nM | CNC(=O)Nc1ccc(-c2nc(N3CCOCC3)cc(C3(S(C)(=O)=O)CC3)n2)cc1 [Example 12a, 3-methyl-1-[4-[4-(1-methylsulfonylcyclopropyl)-6-morpholin-4-ylpyrimidin-2-yl]phenyl]urea]
11 | 2.71 nM | CCNC(=O)Nc1ccc(-c2nc(N3CCOCC3)cc(C3(S(C)(=O)=O)CC3)n2)cc1 [Example 12b, 3-ethyl-1-[4-[4-(1-methylsulfonylcyclopropyl)-6-morpholin-4-ylpyrimidin-2-yl]phenyl]urea]
12 | 1.52 nM | CS(=O)(=O)C1(c2cc(N3CCOCC3)nc(-c3ccc(NC(=O)NC4CCC4)cc3)n2)CC1 [Example 12c, 3-cyclobutyl-1-[4-[4-(1-methylsulfonylcyclopropyl)-6-morpholin-4-ylpyrimidin-2-yl]phenyl]urea]
13 | 1.55 nM | CS(=O)(=O)C1(c2cc(N3CCOCC3)nc(-c3ccc(NC(=O)NCCO)cc3)n2)CC1 [Example 12d, 3-(2-hydroxyethyl)-1-[4-[4-(1-methylsulfonylcyclopropyl)-6-morpholin-4-ylpyrimidin-2-yl]phenyl]urea]
14 | 4.59 nM | CC(C)(CO)NC(=O)Nc1ccc(-c2nc(N3CCOCC3)cc(C3(S(C)(=O)=O)CC3)n2)cc1 [Example 12e, 3-(1-hydroxy-2-methylpropan-2-yl)-1-[4-[4-(1-methylsulfonylcyclopropyl)-6-morpholin-4-ylpyrimidin-2-yl]phenyl]urea]
15 | 60.5 nM | CN(C)CCNC(=O)Nc1ccc(-c2nc(N3CCOCC3)cc(C3(S(C)(=O)=O)CC3)n2)cc1 [Example 12f, 3-(2-dimethylaminoethyl)-1-[4-[4-(1-methylsulfonylcyclopropyl)-6-morpholin-4-ylpyrimidin-2-yl]phenyl]urea]
16 | 2.73 nM | CCCNC(=O)Nc1ccc(-c2nc(N3CCOCC3)cc(C3(S(C)(=O)=O)CC3)n2)cc1 [Example 12g, 1-[4-[4-(1-methylsulfonylcyclopropyl)-6-morpholin-4-ylpyrimidin-2-yl]phenyl]-3-propylurea]
17 | 3.92 nM | CS(=O)(=O)C1(c2cc(N3CCOCC3)nc(-c3ccc(NC(=O)NCCCO)cc3)n2)CC1 [Example 12h, 3-(3-hydroxypropyl)-1-[4-[4-(1-methylsulfonylcyclopropyl)-6-morpholin-4-ylpyrimidin-2-yl]phenyl]urea]
18 | 0.771 nM | Cn1cc(NC(=O)Nc2ccc(-c3nc(N4CCOCC4)cc(C4(S(C)(=O)=O)CC4)n3)cc2)cn1 [Example 12i, 3-(1-methylpyrazol-4-yl)-1-[4-[4-(1-methylsulfonylcyclopropyl)-6-morpholin-4-ylpyrimidin-2-yl]phenyl]urea]
19 | 1.67 nM | CS(=O)(=O)C1(c2cc(N3CCOCC3)nc(-c3ccc(NC(=O)NC4CC4)cc3)n2)CCCC1 [Example 12j, 3-cyclopropyl-1-[4-[4-(1-methylsulfonylcyclopentyl)-6-morpholin-4-ylpyrimidin-2-yl]phenyl]urea]
20 | 4.3 nM | CNC(=O)Nc1ccc(-c2nc(N3CCOCC3)cc(C3(S(C)(=O)=O)CCCC3)n2)cc1 [Example 12k, 3-methyl-1-[4-[4-(1-methylsulfonylcyclopentyl)-6-morpholin-4-ylpyrimidin-2-yl]phenyl]urea]
21 | 1.38 nM | CS(=O)(=O)C1(c2cc(N3CCOCC3)nc(-c3ccc(NC(=O)NCCO)cc3)n2)CCCC1 [Example 12l, 3-(2-hydroxyethyl)-1-[4-[4-(1-methylsulfonylcyclopentyl)-6-morpholin-4-ylpyrimidin-2-yl]phenyl]urea]
22 | 10.1 nM | CC(C)(CO)NC(=O)Nc1ccc(-c2nc(N3CCOCC3)cc(C3(S(C)(=O)=O)CCCC3)n2)cc1 [Example 12m, 3-(1-hydroxy-2-methylpropan-2-yl)-1-[4-[4-(1-methylsulfonylcyclopentyl)-6-morpholin-4-ylpyrimidin-2-yl]phenyl]urea]
23 | 238 nM | CN(C)CCNC(=O)Nc1ccc(-c2nc(N3CCOCC3)cc(C3(S(C)(=O)=O)CCCC3)n2)cc1 [Example 12n, 3-(2-dimethylaminoethyl)-1-[4-[4-(1-methylsulfonylcyclopentyl)-6-morpholin-4-ylpyrimidin-2-yl]phenyl]urea]
24 | 5.09 nM | CS(=O)(=O)C1(c2cc(N3CCOCC3)nc(-c3ccc(NC(=O)NCCCO)cc3)n2)CCCC1 [Example 12o, 3-(3-hydroxypropyl)-1-[4-[4-(1-methylsulfonylcyclopentyl)-6-morpholin-4-ylpyrimidin-2-yl]phenyl]urea]
25 | 1.4 nM | CS(=O)(=O)C1(c2cc(N3CCOCC3)nc(-c3ccc(NC(=O)NC4CC4)cc3)n2)CCC1 [Example 12p, 3-cyclopropyl-1-[4-[4-(1-methylsulfonylcyclobutyl)-6-morpholin-4-ylpyrimidin-2-yl]phenyl]urea]
26 | 1.62 nM | CNC(=O)Nc1ccc(-c2nc(N3CCOCC3)cc(C3(S(C)(=O)=O)CCC3)n2)cc1 [Example 12q, 3-methyl-1-[4-[4-(1-methylsulfonylcyclobutyl)-6-morpholin-4-ylpyrimidin-2-yl]phenyl]urea]
27 | 0.991 nM | CS(=O)(=O)C1(c2cc(N3CCOCC3)nc(-c3ccc(NC(=O)NCCO)cc3)n2)CCC1 [Example 12r, 3-(2-hydroxyethyl)-1-[4-[4-(1-methylsulfonylcyclobutyl)-6-morpholin-4-ylpyrimidin-2-yl]phenyl]urea]
28 | 134 nM | CN(C)CCNC(=O)Nc1ccc(-c2nc(N3CCOCC3)cc(C3(S(C)(=O)=O)CCC3)n2)cc1 [Example 12s, 3-(2-dimethylaminoethyl)-1-[4-[4-(1-methylsulfonylcyclobutyl)-6-morpholin-4-ylpyrimidin-2-yl]phenyl]urea]

Same assay, conditions: table of enzyme assay Test (a)(ii); read-out: Test (a)(ii) IC50

Row | IC50 | SMILES
29 | 7.51 nM | CS(=O)(=O)C1(c2cc(N3CCOCC3)nc(-c3ccc(NC(=O)NC4CCC4)cc3)n2)CC1 [Example 12c, 3-cyclobutyl-1-[4-[4-(1-methylsulfonylcyclopropyl)-6-morpholin-4-ylpyrimidin-2-yl]phenyl]urea]
30 | 350 nM | CN(C)CCNC(=O)Nc1ccc(-c2nc(N3CCOCC3)cc(C3(S(C)(=O)=O)CC3)n2)cc1 [Example 12f, 3-(2-dimethylaminoethyl)-1-[4-[4-(1-methylsulfonylcyclopropyl)-6-morpholin-4-ylpyrimidin-2-yl]phenyl]urea]
31 | 117 nM | CN(C)CCNC(=O)Nc1ccc(-c2nc(N3CCOCC3)cc(C3(S(C)(=O)=O)CCC3)n2)cc1 [Example 12s, 3-(2-dimethylaminoethyl)-1-[4-[4-(1-methylsulfonylcyclobutyl)-6-morpholin-4-ylpyrimidin-2-yl]phenyl]urea]
32 | 3.57 nM | O=C(Nc1ccc(-c2nc(N3CCOCC3)cc(C3(S(=O)(=O)C4CC4)CC3)n2)cc1)NC1CC1 [Example 13, 3-Cyclopropyl-1-[4-[4-(1-cyclopropylsulfonylcyclopropyl)-6-morpholin-4-ylpyrimidin-2-yl]phenyl]urea]
33 | 3.41 nM | CNC(=O)Nc1ccc(-c2nc(N3CCOCC3)cc(C3(S(=O)(=O)C4CC4)CC3)n2)cc1 [Example 13a, 1-[4-[4-(1-cyclopropylsulfonylcyclopropyl)-6-morpholin-4-ylpyrimidin-2-yl]phenyl]-3-methylurea]
34 | 3.7 nM | CCNC(=O)Nc1ccc(-c2nc(N3CCOCC3)cc(C3(S(=O)(=O)C4CC4)CC3)n2)cc1 [Example 13b, 1-[4-[4-(1-cyclopropylsulfonylcyclopropyl)-6-morpholin-4-ylpyrimidin-2-yl]phenyl]-3-ethylurea]
35 | 3.51 nM | O=C(NCCO)Nc1ccc(-c2nc(N3CCOCC3)cc(C3(S(=O)(=O)C4CC4)CC3)n2)cc1 [Example 13d, 1-[4-[4-(1-cyclopropylsulfonylcyclopropyl)-6-morpholin-4-ylpyrimidin-2-yl]phenyl]-3-(2-hydroxyethyl)urea]
36 | 30.1 nM | CC(C)(CO)NC(=O)Nc1ccc(-c2nc(N3CCOCC3)cc(C3(S(=O)(=O)C4CC4)CC3)n2)cc1 [Example 13e, 1-[4-[4-(1-cyclopropylsulfonylcyclopropyl)-6-morpholin-4-ylpyrimidin-2-yl]phenyl]-3-(1-hydroxy-2-methylpropan-2-yl)urea]
